{"source": "patent US9907312B2", "about": "“Compositions comprising a biological control agent and an insecticide” (priority 2012, dated 2018)", "format_in_all_cases": "in vivo", "key": {"[1]": {"system": "Myzus persicae", "experiment": "Myzus persicae spray test (MYZUPE), Chinese cabbage leaf-disks", "settings": "mortality after 6 d", "method": "(§1) For all examples the efficiencies of the compositions comprising at least one BCA and at least one specific insecticide has been determined by the “Colby-formula”: The expected efficacy of a given combination of two compounds is calculated as follows (see Colby, S. R., “Calculating Synergistic and antagonistic Responses of Herbicide Combinations”, Weeds 15, pp. 20-22, 1967):\n(§2) If • X is the efficacy expressed in % mortality of the untreated control for test compound A at a concentration of m ppm respectively m g/ha, • Y is the efficacy expressed in % mortality of the untreated control for test compound B at a concentration of n ppm respectively n g/ha, • E is the efficacy expressed in % mortality of the untreated control using the mixture of A and B at m and n ppm respectively m and n g/ha, then is E=X+Y−(X×Y/100)\n(§3) If the observed insecticidal efficacy of the combination is higher than the one calculated as “E”, then the combination of the two compounds is more than additive, i.e., there is a synergistic effect.\n(§4) To produce a suitable preparation of active compound, 1 part by weight of active compound is mixed with the stated amount of solvent and emulsifier, and the concentrate is diluted with emulsifier-containing water to the desired concentration. To produce a suitable preparation of a spore suspension the spores are diluted with emulsifier-containing water to the desired concentration.\nChinese cabbage (Brassica pekinensis) leaf-disks infected with all instars of the green peach aphid (Myzus persicae), are sprayed with a preparation of the active ingredient of the desired concentration.\nAfter the specified period of time, mortality in % is determined. 100% means all aphids have been killed; 0% means none of the aphids have been killed. The mortality values determined thus are recalculated using the Colby-formula (see above)."}, "[2]": {"system": "Phaedon cochleariae", "experiment": "Phaedon cochleariae spray test, Chinese cabbage leaf-disks", "settings": "mortality after 6 d", "method": "as §1, §2, §3, §4\nChinese cabbage (Brassica pekinensis) leaf-disks are sprayed with a preparation of the active ingredient of the desired concentration. Once dry, the leaf disks are infested with mustard beetle larvae (Phaedon cochleariae).\nAfter the specified period of time, mortality in % is determined. 100% means all beetle larvae have been killed and 0% means none of the beetle larvae have been killed. The mortality values determined thus are recalculated using the Colby-formula (see above)."}, "[3]": {"system": "Nilaparvata lugens", "experiment": "Nilaparvata lugens spray test (NILALU), rice plants", "settings": "1 ppm; mortality after 3 d", "method": "as §1, §2, §3\nTo produce a suitable preparation of active compound, 1 part by weight of active compound is mixed with the stated amount of solvent and emulsifier, and the concentrate is diluted with emulsifier-containing water to the desired concentration. […]\nAfter the specified period of time, mortality in % is determined. […]"}, "[4]": {"system": "Spodoptera frugiperda", "experiment": "Spodoptera frugiperda spray test, cotton leaves", "settings": "0.8 ppm; mortality after 1 d", "method": "as §1, §2\n(§5) If the observed insecticidal efficacy of the combination is higher than the one calculated as “E”, then the combination of the two compounds is more than additive, i.e., there is a synergistic effect. […]\n(§6) After the specified period of time, mortality in % is determined. […] The mortality values determined thus are recalculated using the Colby-formula (see above)."}, "[5]": {"system": "Tetranychus urticae", "experiment": "Tetranychus urticae spray test, OP-resistant, French beans", "settings": "0.032 g ai/ha; mortality after 2 d", "method": "as §1, §2, §5, §6"}}, "data": [{"compound": "N#Cc1nn(-c2c(Cl)cc(C(F)(F)F)cc2Cl)c(N)c1[S+]([O-])C(F)(F)F", "note": "(stereo not drawn) [Fipronil (I95), Fipronil]", "values": [{"measurement": "Efficacy in % after 6d", "setting": "[1]; 4 g/ha", "result": 0, "unit": "%"}, {"measurement": "Efficacy in % after 6d", "setting": "[1]; 100 g/ha", "result": 0, "unit": "%"}, {"measurement": "Efficacy in % after 6d", "setting": "[2]; 0.25 g ai/ha", "result": 33, "unit": "%"}, {"measurement": "Efficacy in % after 3d", "setting": "[3]", "result": 0, "unit": "%"}]}, {"compound": "CNC(=O)Oc1cc(C)c(SC)c(C)c1", "note": "[Methiocarb (I15), Methiocarb]", "values": [{"measurement": "Efficacy in % after 6d", "setting": "[1]; 500 g/ha", "result": 0, "unit": "%"}, {"measurement": "Efficacy in % after 6d", "setting": "[2]; 20 g ai/ha", "result": 0, "unit": "%"}]}, {"compound": "CS/C(C)=N\\OC(=O)N(C)SN(C)C(=O)O/N=C(\\C)SC", "note": "[Thiodicarb (I21), Thiodicarb]", "values": [{"measurement": "Efficacy in % after 1d", "setting": "[4]", "result": 50, "unit": "%"}]}, {"compound": "Abamectin [Abamectin (I152)]", "values": [{"measurement": "Efficacy in % after 2d", "setting": "[5]", "result": 0, "unit": "%"}, {"measurement": "Efficacy in % after 6d", "setting": "[2]; 0.8 g ai/ha", "result": 0, "unit": "%"}]}]}
